The source of these data is ChEMBL document CHEMBL1221235, “Novel Notch-sparing gamma-secretase inhibitors derived from a peroxisome proliferator-activated receptor agonist library” (Bioorg Med Chem Lett, 2010).

Experiment [1] concerns the target T1, Gamma-secretase (Homo sapiens) (UniProt Q96BI3+Q9NZ42+Q8WW43+P49768+Q92542+P49810). Kind of experiment: Inhibition of gamma-secretase in HEK293 cells co-overexpressing APP Swedish mutant assessed as inhibition of amyloid beta 40 production at 1 uM by luciferase reporter gene assay relative to DAPT. Type of experiment: cell-based. The note with it: values are per cent of control.

In experiment [2] the target is T1, Gamma-secretase (Homo sapiens). Kind of experiment: Inhibition of gamma-secretase in HEK293 cells co-overexpressing APP Swedish mutant assessed as inhibition of amyloid beta 40 production at 100 uM by luciferase reporter gene assay relative to DAPT. Type of experiment: cell-based. As to conditions: for residual activity: values are per cent of control. A general note: A reporter such as luciferase makes a cellular process visible.

The target is the same in experiment [3]. Briefly: Inhibition of gamma-secretase in HEK293 cells co-overexpressing APP Swedish mutant assessed as inhibition of amyloid beta 42 production at 1 uM by luciferase reporter gene assay relative to DAPT. Type of experiment: cell-based. The note with it: values are per cent of control.
Experiment [4] shares this target. Kind of experiment: Inhibition of gamma-secretase in HEK293 cells co-overexpressing APP Swedish mutant assessed as inhibition of amyloid beta 42 production at 100 uM by luciferase reporter gene assay relative to DAPT. Type of experiment: cell-based. As to conditions: for residual activity: values are per cent of control.
Experiment [5] has the same target. Briefly: Inhibition of gamma-secretase in HEK293 cells co-overexpressing NotchdeltaE assessed as inhibition of notch cleavage at 1 uM by luciferase reporter gene assay relative to DAPT. Type of experiment: cell-based. The note with it: for residual activity: values are per cent of control.
For experiment [6] the target is unchanged. Kind of experiment: Inhibition of gamma-secretase in HEK293 cells co-overexpressing NotchdeltaE assessed as inhibition of notch cleavage at 100 uM by luciferase reporter gene assay relative to DAPT. Type of experiment: cell-based. The note with it: values are per cent of control.
For experiment [7], the target named is Gamma-secretase. Kind of experiment: Inhibition of gamma-secretase in HEK293 cells co-overexpressing APP Swedish mutant assessed as inhibition of amyloid beta 40 production by luciferase reporter gene assay. Type of experiment: cell-based, Homo sapiens.
For experiment [8], the target named is Gamma-secretase. Briefly: Inhibition of gamma-secretase in HEK293 cells co-overexpressing APP Swedish mutant assessed as inhibition of amyloid beta 42 production by luciferase reporter gene assay. Type of experiment: cell-based, Homo sapiens.
Experiment [9] addresses Gamma-secretase. Briefly: Inhibition of gamma-secretase in HEK293 cells co-overexpressing NotchdeltaE assessed as inhibition of notch cleavage by luciferase reporter gene assay. Type of experiment: cell-based, Homo sapiens.
The target in experiment [10] is T1, Gamma-secretase (Homo sapiens). Briefly: Inhibition of gamma-secretase in HEK293 cells co-overexpressing NotchdeltaE assessed as inhibition of notch cleavage at 3 uM by luciferase reporter gene assay relative to DAPT. The note with it: values are per cent of control. Type of experiment: cell-based.
Experiment [11] has the same target. Briefly: Inhibition of gamma-secretase in HEK293 cells co-overexpressing NotchdeltaE assessed as inhibition of notch cleavage at 30 uM by luciferase reporter gene assay relative to DAPT. Type of experiment: cell-based. As to conditions: values are per cent of control.
Experiment [12] shares this target. Kind of experiment: Inhibition of gamma-secretase in HEK293 cells co-overexpressing APP Swedish mutant assessed as inhibition of amyloid beta 40 production at 3 uM by luciferase reporter gene assay relative to DAPT. As to conditions: values are per cent of control. Type of experiment: cell-based.
Experiment [13] has the same target. Kind of experiment: Inhibition of gamma-secretase in HEK293 cells co-overexpressing APP Swedish mutant assessed as inhibition of amyloid beta 40 production at 30 uM by luciferase reporter gene assay relative to DAPT. Type of experiment: cell-based. As to conditions: values are per cent of control.
Experiment [14] has the same target. Kind of experiment: Inhibition of gamma-secretase in HEK293 cells co-overexpressing APP Swedish mutant assessed as inhibition of amyloid beta 42 production at 3 uM by luciferase reporter gene assay relative to DAPT. Type of experiment: cell-based. The note with it: values are per cent of control.
The target is the same in experiment [15]. Kind of experiment: Inhibition of gamma-secretase in HEK293 cells co-overexpressing APP Swedish mutant assessed as inhibition of amyloid beta 42 production at 30 uM by luciferase reporter gene assay relative to DAPT. Type of experiment: cell-based. As to conditions: values are per cent of control.

Activity calls are given as the source filed them. The rule behind the calls is not given here.

For `CCC(Cc1ccc(F)c(C(=O)NCc2ccc(C(F)(F)F)cc2)c1)C(=O)O` (stereo unspecified), the residual activity (as a rule, the signal under treatment as a percentage of the control signal) amounted to 77.6% in experiment [1]; 13% in experiment [2]; 63.3% in [3]; 0% in experiment [4]; 53.8% in experiment [5]; 38.5% in experiment [6].

In the case of `CC[C@@H](Cc1ccc(OC)c(C(=O)NCc2ccc(C(F)(F)F)cc2)c1)C(=O)O`, the inhibition result in [5] was “Active”. Also, the half-inhibitory concentration (IC50) (commonly the concentration at which inhibition is half-maximal) in [7] is over 100 µM; in experiment [8], over 100 µM; in experiment [9], 24 µM.

With `COc1ccc(CC(C)C(=O)O)cc1CNC(=O)c1ccc(C(F)(F)F)cc1` (stereo unspecified), the residual activity was found to be 114% in [1], 132% in experiment [2], 109% in experiment [3] and 139% in experiment [4].

As for `CC/C(=C\c1ccc(OC)c(C(=O)NCc2ccc(C(F)(F)F)cc2)c1)C(=O)O`, the IC50 in experiment [7] was 32.7 µM; in [8] it was 22.4 µM; in [9], over 100 µM.

With `CSc1ccc(/C=C2/C(C)=C(CC(=O)O)c3cc(F)ccc32)cc1` [SULINDAC SULFIDE], the residual activity amounted to 90.7% in experiment [10]; 43.9% in experiment [11]; 98.4% in experiment [12]; 88.6% in [13]; 97.1% in experiment [14]; 60.3% in [15]. For the same compound, the half-maximal inhibitory concentration (IC50) worked out at 215 µM in experiment [7], 82.5 µM in [8] and 53 µM in [9].

Regarding `COc1ccc(CCC(=O)O)cc1CNC(=O)c1ccc(C(F)(F)F)cc1`, the residual activity came out at 104% in experiment [1], 112% in [2], 102% in experiment [3] and 104% in experiment [4].

`CCC(Cc1ccc(OC)c(C(=O)NCc2ccc(C(F)(F)F)cc2)c1)C(=O)O` (stereo unspecified): the residual activity in experiment [1] was 82%; in [2], 41%; in experiment [3], 88.5%; in [4], 15.2%; in experiment [5], 102%; in [6], 8.9%.

For `CCC(Cc1ccc(OC)c(CNC(=O)c2ccc(OCC(F)(F)F)cc2)c1)C(=O)O` (stereo unspecified), the residual activity in [1] was 118%; in experiment [2], 136%; in [3], 119%; in experiment [4], 133%; in [6], 84%.

As for `CC[C@H](Cc1ccc(OC)c(C(=O)NCc2ccc(C(F)(F)F)cc2)c1)C(=O)O`, the inhibition entry in [2] and in [4] was “Active” each time. Also, the results for the IC50 in [7], in experiment [8] and in experiment [9] were 37.8 µM, 34.2 µM and over 100 µM, respectively.

Turning to `CCC(Cc1ccc(F)c(C(=O)NCc2ccc(Oc3ccccc3)cc2)c1)C(=O)O` (stereo unspecified), the residual activity was found to be 89.8% in experiment [1]; 63.2% in experiment [2]; 99.7% in experiment [3]; 106% in [4]; 6.3% in [5]; 6.8% in experiment [6].

Take `CCC(Cc1ccc(F)c(C(=O)NCc2ccc(OC(F)(F)F)cc2)c1)C(=O)O` (stereo unspecified): the residual activity came to 90.6% in experiment [1]; 42.6% in [2]; 87.4% in experiment [3]; 55.7% in experiment [4]; 67.2% in [5]; 0% in experiment [6].

In the case of `CCC(Cc1ccc(OC)c(CNC(=O)c2ccc(Oc3ccccc3)cc2)c1)C(=O)O` (stereo unspecified), the residual activity in experiment [1] came out at 103%; in experiment [2], 119%; in experiment [3], 103%; in experiment [4], 145%.

For `CCC(Cc1ccc(OC)c(CNC(=O)c2ccc(C(F)(F)F)cc2)c1)C(=O)O` (stereo unspecified), the residual activity is 89.5% in experiment [1], 101% in [3], 31.2% in experiment [5] and 0% in experiment [6].
